In a melting point compilation (Tetko et al.) one finds melting point data, which are given here for 111 molecules.

Structures are written as SMILES. Peptide text beside a SMILES is read from it.

Turning to `COc1ccc(C(=O)O)cc1I`, the melting point (usually the temperature of the solid-liquid transition) was 240 °C.

The molecule `CCCCCCCCCCOC(=O)CCCCC(=O)OCCCCCCCC` displayed a melting point of -50 °C. Molecule `CC1=C(C(=O)OCc2ccccc2)C(c2ccc3ccccc3c2)NC(=O)N1C` (stereo unspecified) yielded a melting point of 150 °C.

Molecule `COc1ccc(Nc2cccc(C(F)(F)F)c2)cc1` displayed a melting point of 58 °C.

Take `CCC(CO)(CO)COCC(CC)(CO)CO`: the melting point stood at 110 °C.

Turning to `O=C(O)c1ccc(N=C=S)cc1`, the melting point came out at 220 °C. Molecule `Oc1c(CN2CCCCC2)ccc2ccccc12` showed a melting point of 134 to 136 °C.

On to `FC(F)(I)C(F)(F)C(F)(F)C(F)(F)I`, for which the melting point is -9 °C.

`CCS(=O)(=O)c1cccnc1S(=O)(=O)NC(=O)Nc1nc(OC)cc(OC)n1` had a melting point of 177 °C.

Consider `Nc1c(Cl)cc(OC(F)(F)F)cc1Cl`, for which the melting point was found to be 32 °C.

The molecule `CC12CCC3C(CCC4CC5(CCC43C)OCCO5)C1CCC2=O` (stereo unspecified) showed a melting point of 153 °C.

Consider `N#Cc1ccc(F)cn1`, for which the melting point worked out at 43 °C. The result for `COP(=S)(OC)Oc1ccc([N+](=O)[O-])c(Cl)c1` reads 21 °C; that for `CC(C)C(C)(N)P(=O)(O)O` (stereo unspecified), 248 to 255 °C.

With `CN1CCN(C(=S)SSC(=S)N2CCN(C)CC2)CC1`, the melting point fell in the range of 142 to 143 °C.

`Cc1ccc2c(c1)C(=O)OC2=O` yielded a melting point of 88 to 92 °C.

In the case of `Nc1ccc(C=Cc2cccc(N)c2)cc1`, the melting point was found to be 109 °C. On to `CCN(CC)c1ccccc1C`, for which the melting point was -60 °C. `NC(COc1ccc(C2SCCS2)cc1)=NO` gave a melting point of 113 to 115 °C.

`CCOC(=O)C(C/C=C1\OC(=O)C(OC)=C1OC)S(=O)(=O)c1ccccc1` (stereo unspecified): the melting point lay within 99 to 101 °C. In turn, `O=S(=O)(Cl)c1cccc2cccnc12` gave a melting point of 129 °C. As for `CC(C)S(=O)(=O)c1cnc(N2CCCCC2)nc1N`, the melting point is 155 to 158 °C. With `Nc1ccc(C(=O)c2ccccc2)cc1N`, the melting point turned out to be 117 °C. Next, `ON=C1CCCSC1`: 103 to 104 °C. The result for `NC(=S)c1ccc2occc2c1` reads 98.6 °C. Molecule `COc1cc2c(cc1C(C)C)C(C(=O)O)C2` (stereo unspecified) gave a melting point of 86 °C.

`CCSc1ncccc1C(=O)Cl`: the melting point was in the range of 53 to 55 °C.

For `N#Cc1ccc(-c2cccs2)s1`, the melting point stood at 100 °C. Next, `CC(=O)OCC1OC(S)C(OC(C)=O)C(OC(C)=O)C1OC(C)=O` (stereo unspecified): 114 to 119 °C; `C=CC(=O)OCCN(CC)CC`: -60 °C; `O=C(C=Cc1ccc(-c2ccccc2)o1)c1ccccc1`: 98 to 99 °C. With `CCCCn1c2ccccc2c2ccccc21`, the melting point turned out to be 58 °C.

The molecule `O=C(OCCC(OC(=O)c1ccccc1)c1ccccc1)c1ccccc1` (stereo unspecified) returned a melting point of 51 °C. Next, `COc1ccccc1C(=O)N(NC(=O)c1ccccc1)C(C)(C)C`: 182 °C; `S=C1NCCc2ccccc21`: 97 to 99 °C. Next, `CC(=O)c1ccc(C)c(F)c1`: 33 °C. The result for `FC(F)(F)C(F)(F)C(F)(F)C(F)(F)C(F)(F)C(F)(F)C(F)(F)C(F)(F)C(F)(F)C(F)(F)CCI` reads 82 to 83 °C. Regarding `N#CCn1cnc(Cl)c1Cl`, the melting point is 95 to 99 °C. The result for `CC(C)CC#N` reads -101 °C; that for `NC(=S)c1ncc(C(F)(F)F)cc1Cl`, 135 to 136 °C. The result for `O=[N+]([O-])c1ccc(-c2nnc3n2CN(c2ccc([N+](=O)[O-])cc2)CS3)cc1` reads 320 °C; that for `Oc1c(Cl)cc(Cl)c(Cl)c1Cl`, 70 °C. Next, `CCOC(=O)C(C)Oc1ccc(Oc2cnc3cc(Cl)ccc3n2)cc1` (stereo unspecified): 92 °C; `O=C(O)c1cccc2c1-c1ccccc1C2`: 192 to 194 °C; `CC(C)(C)C(=O)Nc1ccncc1C(=O)O`: 250 to 254 °C. `O=C(O)c1cc(-c2ccc(Cl)cc2)oc1C(F)(F)F` yielded a melting point of 192 to 193 °C.

`N#Cc1ccc(S(=O)(=O)C(F)(F)F)cc1`: the melting point turned out to be 90 °C. Next, `Cc1ccc([N+](=O)[O-])c(N)c1`: 108 °C; `BrCc1cc(CBr)c(CBr)cc1CBr`: 156 to 162 °C; `COc1cc(C(N)=O)cc(Cl)n1`: 186 °C. The result for `CCOC(=O)C1=C(C)NC(=S)NC1c1ccco1` (stereo unspecified) reads 174 to 175 °C; that for `Cn1c(=O)c(C2=NNC(=O)C2=CNc2ccc(Cl)cc2)c(O)c2ccccc21`, 290 °C.

The molecule `COC1CCC(C2C(=O)NC(=O)NC2=O)CC1` (stereo unspecified) came in with a melting point of 215 °C. Next, `CC(=O)OC1=C(C(C)C)C(=O)C2=C(C1=O)C1(C)CCCC(C)(C)C1C(OC(C)=O)C2OC(C)=O` (stereo unspecified): 89 °C; `CC(=O)CSc1ccc(C)cc1`: 96 to 98 °C; `Nc1cc(N)c(/C=C/c2ccccc2)c(N)c1C=Cc1ccccc1`: 161 °C. Next, `CCC(CO)[N+](=O)[O-]` (stereo unspecified): -47 °C; `Clc1ccc2ccccc2c1`: 61 °C; `O=[N+]([O-])c1ccc(Cc2ccccn2)c([N+](=O)[O-])c1`: 92 °C. The molecule `CCOC(=O)CCCCC(=O)O` gave a melting point of 29 °C. The result for `CCOC(=O)c1sc(-c2ccc(N)cc2)nc1C` reads 128 °C. The result for `COc1cc(C=CC(=O)O)ccc1OC(C)=O` reads 195 °C; that for `OC(c1c(F)c(F)c(F)c(F)c1F)c1c(F)c(F)c(F)c(F)c1F`, 76 to 80 °C. `NS(=O)(=O)c1cc(Cl)c(Cl)cc1Cl`: the melting point was determined as 189 °C. Regarding `CCOC(=O)c1sc(SCc2ccccc2)c2c1CCCC2=O`, the melting point was in the range of 139 to 141 °C. Next, `CSSC`: -85 °C. Next, `O=C(O)C1=CCCC1`: 119 °C; `BrC1C2CC3CC(C2)CC1C3` (stereo unspecified): 139 °C. Next, `Nc1ccc(Cl)c(C(=O)O)c1`: 188 °C; `C=CCOC(=O)C=CC(=O)OCC=C`: -47 °C; `CCOC(=O)C1=C(C)NC(=O)NC1c1ccccc1C(F)(F)F` (stereo unspecified): 203 °C. In the case of `Cn1cc(Cl)c(C=O)n1`, the melting point was 82 °C. Turning to `Cc1nc(-c2cccc(CO)c2)no1`, the melting point fell in the range of 56 to 58 °C. Take `CC12CCC(O)CC1CCC1C2CCC2(C)C1CCC2(O)C#Cc1ccccc1` (stereo unspecified): the melting point was 120 to 123 °C.

`Cc1cc(Oc2ccc(C(F)(F)F)cc2[N+](=O)[O-])ccc1Cl` returned a melting point of 57 to 59 °C. Next, `Cc1nc(C2CCN(C(=O)OC(C)(C)C)CC2)sc1C=O`: 220 °C. Take `Clc1nccc(-c2ccccc2)n1`: the melting point fell in the range of 86 to 87 °C.

In turn, `CN(C)c1ccccc1C(=O)O` had a melting point of 72 °C. `CC(=O)c1ccc2c(c1)OCCO2` returned a melting point of 83 °C. `CC(C)(C)C(O)C(Cc1ccc(Cl)cc1)n1cncn1` (stereo unspecified): the melting point was determined as 166 °C.

Regarding `CCCCOc1ccc(-c2nnc3n2NC(c2ccco2)S3)cc1` (stereo unspecified), the melting point came out at 127 °C. Take `Nc1cc(C(F)(F)F)ccc1N1CCOCC1`: the melting point is 135 to 137 °C.

In the case of `N#Cc1cccc(N2CCCC2)c1`, the melting point was 84 to 85 °C. Next, `Cc1nn2c(-c3ccccc3)nnc2s1`: 192 to 194 °C. The molecule `Cc1nc(-c2cnccn2)sc1C(=O)CBr` had a melting point of 100 °C. The result for `OC1C(C2COC3(CCCCC3)O2)OC2OC3(CCCCC3)OC21` (stereo unspecified) reads 129 to 135 °C; that for `CC(O)C1CC1` (stereo unspecified), -32.1 °C. Next, `CC12Cc3nonc3CC1CCC1C2CCC2(C)C1CCC2(C)O` (stereo unspecified): 152 °C. The result for `NC(N)=NCCCCCCCCNCCCCCCCCN=C(N)N` reads 60 °C; that for `c1ccc(Cc2cccc3ccccc23)cc1`, 59.5 °C; that for `COc1ccc2c(c1)C(=O)N(CCc1ccc(S(=O)(=O)NC(=O)NC3CCCCC3)cc1)C(=O)C2(C)C`, 181 °C. `CC1(C)C(C=C(Cl)Cl)C1C(=O)OCc1c(F)c(F)cc(F)c1F` (stereo unspecified): the melting point was determined as 32 °C. `Cc1nc(O)nc(O)c1C` displayed a melting point of 297 to 300 °C. `O=C1C(c2cccc3ccccc23)=[N+]([O-])c2cc([N+](=O)[O-])ccc21` had a melting point of 223 °C. Next, `COc1ccc(-c2nnc(CCl)o2)cc1`: 91 to 95 °C; `CCOC(=O)c1c(SC)nn(C(N)=S)c1N`: 149 °C.

The molecule `NC(=O)c1cc(Cl)ccc1N` gave a melting point of 171 °C.

`CC(=O)OCC(=O)C12N=C(C)OC1CC1C3CCC4=CC(=O)C=CC4(C)C3C(O)CC12C` (stereo unspecified) gave a melting point of 256 °C.

Consider `CCCCCCCF`, for which the melting point was -73 °C. `COc1ccc2ccccc2c1CO` had a melting point of 100 to 104 °C. `O=C(O)c1cc(Br)c(Br)s1` came in with a melting point of 230 °C. In turn, `CC[C@H](C)[C@H](NC(=O)CN)C(=O)O` (H-Gly-Ile-OH) returned a melting point of 248 °C.

As for `Nc1cc(Cl)c2nonc2c1[N+](=O)[O-]`, the melting point lay within 276 to 277 °C. `O=C(O)CCC(=O)c1cccs1` registered a melting point of 121 to 122 °C. The result for `Cc1ccc(NN=C2SC(=N)NC2=O)cc1` reads 265 °C. Next, `NS(=O)(=O)c1cc(C(F)(F)F)ccc1C(F)(F)F`: 147 °C. The result for `O=[N+]([O-])c1cc(S(=O)(=O)Cl)ccc1Cl` reads 60 °C; that for `COc1cc(Cl)c(Cl)cc1Cl`, 77.5 °C. Regarding `O=S(=O)(c1ccccc1)N(F)S(=O)(=O)c1ccccc1`, the melting point lay within 110 to 115 °C. The result for `C[C@H](N)C(=O)O` reads 314 to 316 °C; that for `O=C(c1ccccc1O)c1ccccc1O`, 59.5 °C.
